Reference: patent US9896435B2, “N-pyrrolidinyl,N′-pyrazolyl-urea, thiourea, guanidine and cyanoguanidine compounds as TrkA kinase inhibitors” (Array BioPharma Inc., priority 2012, dated 2018)

The compounds below were run against His-tagged recombinant human TrkA (Homo sapiens (Human), UniProt P04629) (assay: TrkA LanthaScreen Eu Kinase Binding Assay). Conditions: averaged IC50; LanthaScreen binding assay of Example A; read-out: TrkA Enzyme IC50.
Protocol: TrkA binding activity was determined in a TrkA LanthaScreen™ Eu Kinase Binding Assay. 5 nM His-tagged recombinant human TrkA (6HIS tagged cytoplasmic domain from Invitrogen, Catalog No. PV3144) was incubated with 4 nM Alexa-Fluor® Tracer 236 (Invitrogen Cat. No. PV5592), 2 nM biotinylated anti-His (Invitrogen Cat. No. PV6090), and 2 nM europium-labeled Streptavidin (Invitrogen Cat. No. PV5899), in buffer (25 mM MOPS, pH 7.5, 5 mM MgCl2, 0.005% Triton X-100). Three fold serial dilutions of compounds of the invention in DMSO were added to a final percentage of 2% DMSO. After 60-minute incubation at 22° C., the reaction was measured using the EnVision mutlimode plate reader (PerkinElmer) via TR-FRET dual wavelength detection at […]. The percent of control was calculated using a ratiometric emission factor. The IC50 values were determined by fitting a four parameter model to the percent of control data.
Table A provides averaged IC50 values for compounds of the invention when tested in the assay of Example A, where A represents an averaged IC50 value<100 nM.

Sequence of His-tagged recombinant human TrkA (P04629 440-796): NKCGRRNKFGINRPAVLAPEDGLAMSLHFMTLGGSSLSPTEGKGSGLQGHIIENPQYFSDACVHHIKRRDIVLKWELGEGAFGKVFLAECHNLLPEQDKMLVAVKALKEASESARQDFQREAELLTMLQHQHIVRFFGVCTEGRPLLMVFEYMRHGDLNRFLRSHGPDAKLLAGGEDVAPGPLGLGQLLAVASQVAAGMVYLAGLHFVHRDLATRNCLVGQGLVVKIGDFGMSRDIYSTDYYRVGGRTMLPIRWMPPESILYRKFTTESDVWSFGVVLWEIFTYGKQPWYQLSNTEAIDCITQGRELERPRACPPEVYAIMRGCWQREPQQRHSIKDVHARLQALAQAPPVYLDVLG

| IC50 [nM] | Structure (SMILES) |
| --- | --- |
| < 100 | COCCN1C[C@@H](NC(=O)Nc2c(C)c(-c3cnc(=O)n(C)c3)nn2-c2ccccc2)[C@H](c2ccc(F)c(F)c2)C1 [Example 28, 1-((3S,4R)-4-(3,4-difluorophenyl)-1-(2-methoxyethyl)pyrrolidin-3-yl)-3-(4-methyl-3-(1-methyl-2-oxo-1,2-dihydropyrimidin-5-yl)-1-phenyl-1H-pyrazol-5-yl)urea] |
| < 100 | COCCN1C[C@@H](NC(=O)Nc2c(C)c(-c3cc(C)c(=O)n(C)c3)nn2-c2ccccc2)[C@H](c2ccc(F)c(F)c2)C1 [Example 29, 1-((3S,4R)-4-(3,4-difluorophenyl)-1-(2-methoxyethyl)pyrrolidin-3-yl)-3-(3-(1,5-dimethyl-6-oxo-1,6-dihydropyridin-3-yl)-4-methyl-1-phenyl-1H-pyrazol-5-yl)urea] |
| < 100 | COCCN1C[C@@H](NC(=O)Nc2c(C)c(S(C)(=O)=O)nn2-c2ccccc2)[C@H](c2ccc(F)c(F)c2)C1 [Example 30, 1-((3S,4R)-4-(3,4-difluorophenyl)-1-(2-methoxyethyl)pyrrolidin-3-yl)-3-(4-methyl-3-(methylsulfonyl)-1-phenyl-1H-pyrazol-5-yl)urea] |
| < 100 | COCCN1C[C@@H](NC(=O)Nc2c(C)c(C(C)=O)nn2-c2ccccc2)[C@H](c2ccc(F)c(F)c2)C1 [Example 31, 1-(3-acetyl-4-methyl-1-phenyl-1H-pyrazol-5-yl)-3-((3S,4R)-4-(3,4-difluorophenyl)-1-(2-methoxyethyl)pyrrolidin-3-yl)urea] |
